SMILES strings stand for the structures. Values after ≈ are worked out from the molar mass of the structure shown. Like-named read-outs stand apart in the source and are kept apart here.

The values below come from patent US20150147385A1, “INTRAVENOUS SYNTHETIC CURCUMIN (S-CURCUMIN) FOR THE TREATMENT OF PROLIFERATIVE DISORDERS” (SignPath Pharma, Inc., priority 2013, published 2015).

Series [1] relates to breast cancer cell line MCF10ACA1H. In words: Scratch assay (wound healing) in MCF10ACA1H. It is filed as cell-based, human. The note with it: 12 hour exposure.
Series [2] in a line: Solubilities of S-curcumin and C3-complex curcumin in different organic solvents. Particulars: for solubility: organic solvent or mixture, read-out: Conc. (solubility). It is filed as physicochemical. The source says: Comparison of PLGA C3-complex-curcumin vs PLGA S-curcumin indicated the following differences. The solubilities of 99.2% S-Curcumin in all four solvents. […] This confers improved manufacturing capability, and attributes to different pharmacokinetics and pharmacodynamics in in vivo settings (Table 1). [table]

As for `COc1cc(C=CC(=O)CC(=O)C=Cc2ccc(O)c(OC)c2)ccc1O` [S-curcumin, 1,7-bis(4-hydroxy-3-methoxyphenyl)-1,6-heptadiene-3,5-dione], the “More effective than C3-curcumin in interfering with wound healing” value in series [1] stood at 30%. The “Solubility compared with C3 complex” value in series [2] (normalized to equal concentrations, ethanol, ethyl acetate, acetone, acetonitrile) is “greater solubility”. Also, the solubility (usually the dissolved amount per volume that the medium holds) in series [2] (solvent acetone) came to 42300 µg/mL (≈ 115 mM); in series [2] (solvent acetonitrile), 5440 µg/mL (≈ 14.8 mM); in series [2] (solvent ethanol), 3800 µg/mL (≈ 10.3 mM); in series [2] (solvent ethyl acetate), 10400 µg/mL (≈ 28.2 mM). Also, the “1 g of solvent solubilize in solvent” value in series [2] (solvent acetone) came out at 23.6 mL; in series [2] (solvent acetonitrile), 184 mL; in series [2] (solvent ethanol) it was 263 mL; in series [2] (solvent ethyl acetate), 96.2 mL. The “Physical appearance of solubility” value is “Fully” in series [2] (solvent acetone), “Partial” in series [2] (solvent acetonitrile), “Partial” in series [2] (solvent ethanol) and “Partial” in series [2] (solvent ethyl acetate).
